From patent publication US20150353495A1 (PORTOLA PHARMACEUTICALS, INC., priority 2010, published 2015)

What was measured:
Type in all cases: biochemical
JAK3 = molecular target: T1, JAK3 (Homo sapiens, UniProt P52333); test: Z'-LYTE kinase assay JAK3
T1 construct: 5 μl of catalytic domain recombinant Kinase enzyme+Tyr peptide substrate (Invitrogen, CA); purchased Invitrogen
Procedure, shortened: (§1)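 In duplicate wells, each test molecule (1% final DMSO) is incubated with recombinant kinase catalytic domain, Tyr6 peptide substrate and ATP for one hour at room temperature; a site-specific protease is then added for another hour before fluorescence reading.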

JAK2 = molecular target: T2, JAK2 (Homo sapiens, UniProt O60674); test: Z'-LYTE kinase assay JAK2
T2 construct: 5 μl of catalytic domain recombinant Kinase enzyme+Tyr peptide substrate (Invitrogen, CA); purchased Invitrogen
Procedure, shortened: as §1

JAK1 = molecular target: T3, JAK1 (Homo sapiens, UniProt P23458); test: Z'-LYTE kinase assay JAK1
T3 construct: 5 μl of catalytic domain recombinant Kinase enzyme+Tyr peptide substrate (Invitrogen, CA); purchased Invitrogen
Procedure, shortened: as §1

T2 sequence (O60674 849-1124 limits assumed): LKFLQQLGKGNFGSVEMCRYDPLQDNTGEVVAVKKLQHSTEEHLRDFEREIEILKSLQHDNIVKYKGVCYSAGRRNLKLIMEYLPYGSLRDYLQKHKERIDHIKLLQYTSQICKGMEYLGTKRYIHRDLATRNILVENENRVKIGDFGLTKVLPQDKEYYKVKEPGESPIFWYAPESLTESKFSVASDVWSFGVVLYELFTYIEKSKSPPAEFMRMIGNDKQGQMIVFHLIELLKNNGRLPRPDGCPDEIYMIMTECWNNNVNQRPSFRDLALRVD
T3 sequence (P23458 875-1153 limits assumed): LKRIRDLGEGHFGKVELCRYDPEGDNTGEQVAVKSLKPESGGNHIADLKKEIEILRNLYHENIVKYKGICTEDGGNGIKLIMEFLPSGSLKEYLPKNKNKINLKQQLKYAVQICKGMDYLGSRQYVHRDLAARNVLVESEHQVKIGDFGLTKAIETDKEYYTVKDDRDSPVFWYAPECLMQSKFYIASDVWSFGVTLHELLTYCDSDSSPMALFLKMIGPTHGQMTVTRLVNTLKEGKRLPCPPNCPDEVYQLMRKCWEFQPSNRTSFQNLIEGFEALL
T1 sequence (P52333 822-1111 limits assumed): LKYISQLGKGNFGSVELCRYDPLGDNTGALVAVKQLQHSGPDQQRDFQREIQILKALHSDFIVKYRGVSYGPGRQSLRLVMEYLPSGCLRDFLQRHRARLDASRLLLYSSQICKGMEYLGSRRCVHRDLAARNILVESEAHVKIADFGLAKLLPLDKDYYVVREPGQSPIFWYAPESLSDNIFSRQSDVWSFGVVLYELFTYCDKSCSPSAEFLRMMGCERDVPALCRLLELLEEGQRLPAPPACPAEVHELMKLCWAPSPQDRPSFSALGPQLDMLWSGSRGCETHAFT

Row | IC50 (JAK3) [nM] | IC50 (JAK2) [nM] | IC50 (JAK1) [nM] | Structure (SMILES)
1 | 1 to 10 | 100 to 1000 | 100 to 1000 | NC(=O)c1cnc(Nc2ccc(C3CN(C(=O)N4CCCC4)C3)cc2)cc1NCc1ccccc1 [Example 338, 4-(benzylamino)-6-(4-(1-(pyrrolidine-1-carbonyl)azetidin-3-yl)phenylamino)nicotinamide]
2 | 10 to 100 | > 1000 | > 1000 | CN(C)S(=O)(=O)N1CC(c2ccc(Nc3cc(NCc4ccccc4)c(C(N)=O)cn3)cc2)C1 [Example 339, 4-(benzylamino)-6-(4-(1-(N,N-dimethylsulfamoyl)azetidin-3-yl)phenylamino)nicotinamide]
3 | 10 to 100 | 100 to 1000 | 100 to 1000 | CNC(=O)Cc1ccc(Nc2cc(NCc3ccccc3)c(C(N)=O)cn2)cc1 [Example 340, 4-(benzylamino)-6-(4-(2-(methylamino)-2-oxoethyl)phenylamino)nicotinamide]
4 | 1 to 10 | 100 to 1000 | 100 to 1000 | NC(=O)c1cnc(Nc2ccc(CC(=O)NCC(F)(F)F)cc2)cc1NCc1ccccc1 [Example 341, 4-(benzylamino)-6-(4-(2-oxo-2-(2,2,2-trifluoroethylamino)ethyl)phenylamino)nicotinamide]
5 | 1 to 10 | 100 to 1000 | 100 to 1000 | CN(C)C(=O)C1CN(c2ccc(Nc3cc(NCc4ccccc4)c(C(N)=O)cn3)cc2F)C1 [Example 342, 4-(benzylamino)-6-(4-(3-(dimethylcarbamoyl)azetidin-1-yl)-3-fluorophenylamino)nicotinamide]
6 | 1 to 10 | 10 to 100 | 100 to 1000 | CN(C)C(=O)C1CCN(c2ccc(Nc3cc(NCc4ccccc4)c(C(N)=O)cn3)cc2)CC1 [Example 343, 4-(benzylamino)-6-(4-(4-(dimethylcarbamoyl)piperidin-1-yl)phenylamino)nicotinamide]
7 | 1 to 10 | 10 to 100 | 100 to 1000 | CN(C)C(=O)C1CCN(c2ccc(Nc3cc(NCc4cccc5sccc45)c(C(N)=O)cn3)cc2)CC1 [Example 344, 4-(benzo[b]thiophen-4-ylmethylamino)-6-(4-(4-(dimethylcarbamoyl)piperidin-1-yl)phenylamino)nicotinamide]
8 | < 1 | 1 to 10 | 1 to 10 | CN(C)C(=O)C1CCN(c2ccc(Nc3cc(NCc4cccc5[nH]ccc45)c(C(N)=O)cn3)cc2)CC1 [Example 345, 4-((1H-indol-4-yl)methylamino)-6-(4-(4-(dimethylcarbamoyl)piperidin-1-yl)phenylamino)nicotinamide]
9 | < 1 | 10 to 100 | 10 to 100 | CS(=O)(=O)Cc1ccc(Nc2cc(NCc3cccc4ccsc34)c(C(N)=O)cn2)cc1 [Example 346, 4-(benzo[b]thiophen-7-ylmethylamino)-6-(4-(methylsulfonylmethyl)phenylamino)nicotinamide]
10 | 1 to 10 | 100 to 1000 | 100 to 1000 | CS(=O)(=O)Cc1ccc(Nc2cc(NCc3ccccc3)c(C(N)=O)cn2)cc1 [Example 347, 4-(benzylamino)-6-(4-(methylsulfonylmethyl)phenylamino)nicotinamide]
11 | < 1 | 1 to 10 | 1 to 10 | CS(=O)(=O)Cc1ccc(Nc2cc(NCc3cccc4[nH]ccc34)c(C(N)=O)cn2)cc1 [Example 348, 4-((1H-indol-4-yl)methylamino)-6-(4-(methylsulfonylmethyl)phenylamino)nicotinamide]
12 | 1 to 10 | 10 to 100 | 100 to 1000 | CN(C)C(=O)C1CN(c2ccc(Nc3cc(NCc4cccc5ccsc45)c(C(N)=O)cn3)cc2F)C1 [Example 349, 4-(benzo[b]thiophen-7-ylmethylamino)-6-(4-(3-(dimethylcarbamoyl)azetidin-1-yl)-3-fluorophenylamino)nicotinamide]
13 | < 1 | 10 to 100 | 10 to 100 | CN(C)C(=O)C1CCN(c2ccc(Nc3cc(NCc4cccc5ccsc45)c(C(N)=O)cn3)cc2)CC1 [Example 350, 4-(benzo[b]thiophen-7-ylmethylamino)-6-(4-(4-(dimethylcarbamoyl)piperidin-1-yl)phenylamino)nicotinamide]
14 | 1 to 10 | 100 to 1000 | 100 to 1000 | CN(C)C(=O)C1CCN(c2ccc(Nc3cc(NCc4cccc5ccsc45)c(C(N)=O)cn3)cc2Cl)CC1 [Example 351, 4-(benzo[b]thiophen-7-ylmethylamino)-6-(3-chloro-4-(4-(dimethylcarbamoyl)piperidin-1-yl)phenylamino)nicotinamide]
15 | 1 to 10 | 10 to 100 | 10 to 100 | CC(=O)NCc1ccc(Nc2cc(NCc3cccc4ccsc34)c(C(N)=O)cn2)cc1 [Example 352, 6-(4-(acetamidomethyl)phenylamino)-4-(benzo[b]thiophen-7-ylmethylamino)nicotinamide]
16 | 1 to 10 | 10 to 100 | 100 to 1000 | CS(=O)(=O)NCc1ccc(Nc2cc(NCc3cccc4ccsc34)c(C(N)=O)cn2)cc1 [Example 353, 4-(benzo[b]thiophen-7-ylmethylamino)-6-(4-(methylsulfonamidomethyl)phenylamino)nicotinamide]
17 | 1 to 10 | 10 to 100 | 100 to 1000 | CN(C)C(=O)NCc1ccc(Nc2cc(NCc3cccc4ccsc34)c(C(N)=O)cn2)cc1 [Example 354, 4-(benzo[b]thiophen-7-ylmethylamino)-6-(4-((3,3-dimethylureido)methyl)phenylamino)nicotinamide]
18 | 1 to 10 | 100 to 1000 | 100 to 1000 | CN(C)S(=O)(=O)NCc1ccc(Nc2cc(NCc3cccc4ccsc34)c(C(N)=O)cn2)cc1 [Example 355, 4-(benzo[b]thiophen-7-ylmethylamino)-6-(4-((N,N-dimethylsulfamoylamino)methyl)phenylamino)nicotinamide]

Row | IC50 (JAK3) [nM] | IC50 (JAK2) [nM] | IC50 (JAK1) [nM] | Structure (SMILES)
19 | 100 to 1000 | > 1000 | > 1000 | CC(=O)N(C)c1ccc(Nc2cc(NC3(c4ccccc4)CC3)c(C(N)=O)cn2)cc1 [Example 361, 6-(4-(N-methylacetamido)phenylamino)-4-(1-phenylcyclopropylamino)nicotinamide]
20 | 10 to 100 | > 1000 | > 1000 | NC(=O)c1cnc(Nc2ccc(N3CCCCC3)cc2)cc1NC1(c2ccccc2)CC1 [Example 362]
21 | 10 to 100 | 100 to 1000 | > 1000 | CC(=O)N1CCN(c2cccc(Nc3cc(NC4(c5ccccc5)CC4)c(C(N)=O)cn3)c2)CC1 [Example 371, 6-(3-(4-acetylpiperazin-1-yl)phenylamino)-4-(1-phenylcyclopropylamino)nicotinamide]
22 | > 1000 | > 1000 | > 1000 | CC(=O)N1CCN(c2cccc(N(C(C)=O)c3cc(NC4(c5ccccc5)CC4)c(C(N)=O)cn3)c2)CC1 [Example 372, 6-(N-(3-(4-acetylpiperazin-1-yl)phenyl)acetamino)-4-(1-phenylcyclopropylamino)nicotinamide]
23 | 1 to 10 | 10 to 100 | 100 to 1000 | CCC(=O)N1CCN(c2ccc(Nc3cc(NC4(c5cccc(F)c5F)CC4)c(C(N)=O)cn3)cc2)CC1 [Example 374, 4-(1-(2,3-difluorophenyl)cyclopropylamino)-6-(4-(4-propionylpiperazin-1-yl)phenylamino)nicotinamide]
24 | 10 to 100 | > 1000 | > 1000 | CCC(=O)N1CCC(c2ccc(Nc3cc(NC4(c5ccccc5)CC4)c(C(N)=O)cn3)cc2)CC1 [Example 375, 4-(1-phenylcyclopropylamino)-6-(4-(1-propionylpiperidin-4-yl)phenylamino)nicotinamide]
25 | 100 to 1000 | > 1000 | > 1000 | CC(=O)N1CCN(c2ccc(Nc3ncc(C(N)=O)c(NCc4cccc(F)c4)c3Cl)cc2)CC1 [Example 376]
26 | 10 to 100 | 100 to 1000 | 100 to 1000 | N#CCOc1cccc(Nc2cc(NCc3ccccc3)c(C(N)=O)cn2)c1 [Example 383]
27 | 1 to 10 | 100 to 1000 | 100 to 1000 | N#CCc1cccc(Nc2cc(NCc3ccccc3)c(C(N)=O)cn2)c1 [Example 387]
28 | 10 to 100 | 100 to 1000 | 100 to 1000 | N#CCc1ccc(Nc2cc(NCc3ccccc3)c(C(N)=O)cn2)cc1 [Example 390]
29 | 10 to 100 | > 1000 | > 1000 | N#Cc1cccc(Nc2cc(NCc3ccccc3)c(C(N)=O)cn2)c1 [Example 391]
30 | 100 to 1000 | > 1000 | > 1000 | N#Cc1ccc(Nc2cc(NCc3ccccc3)c(C(N)=O)cn2)cc1 [Example 392]
31 | > 1000 | > 1000 | > 1000 | N#Cc1ccc(Nc2cc(NCc3ccccc3)c(C(N)=O)cn2)cc1C#N [Example 393]
32 | 1 to 10 | 10 to 100 | 10 to 100 | NC(=O)c1cnc(Nc2ccc(N3CCN(c4ccccn4)CC3)cc2)cc1NCc1cccc2[nH]ccc12 [Example 402]
33 | 10 to 100 | > 1000 | > 1000 | CS(=O)(=O)c1ccc(Nc2cc(NCc3cccc(-c4ccncc4)c3)c(C(N)=O)cn2)cc1 [Example 413, 6-(4-(methylsulfonyl)phenylamino)-4-(3-(pyridine-4-yl)benzylamino)nicotinamide]
34 | 1 to 10 | 100 to 1000 | 100 to 1000 | CN(C)C(=O)c1ccc(Nc2cc(NCc3cccc(-c4cccnc4)c3)c(C(N)=O)cn2)cc1 [Example 414, 6-(4-(dimethylcarbamoyl)phenylamino)-4-(3-(pyridine-3-yl)benzylamino)nicotinamide]
35 | 10 to 100 | > 1000 | > 1000 | CS(=O)(=O)c1ccc(Nc2cc(NCc3cccc(-c4cccnc4)c3)c(C(N)=O)cn2)cc1 [Example 415]
